Laboratory results reported in ChEMBL document CHEMBL3351635, “Novel nitro(triazole/imidazole)-based heteroarylamides/sulfonamides as potential antitrypanosomal agents” (Eur J Med Chem, 2014).

Assays:
Trypanosoma cruzi [1] = test: Ratio of benznidazol IC50 to compound IC50 for trypomastigote forms of Trypanosoma cruzi Tulahuen C2C4 infected in rat L6 cells assessed as inhibition of growth after 96 hrs by inverted microscopy; assay type: functional
[2] = Selectivity index, ratio of IC50 for rat L6 cells to IC50 for trypomastigote forms of Trypanosoma cruzi Tulahuen C2C4 infected in rat L6 cells; assay type: toxicity, cell-based; details: read-out: Ratio IC50
[3] = Selectivity index, ratio of IC50 for rat L6 cells to IC50 for bloodstream forms of Trypanosoma brucei rhodesiense STIB 900; assay type: toxicity, cell-based; details: read-out: Ratio IC50
[4] = tested on: Trypanosoma brucei rhodesiense; test: Antiparasitic activity against bloodstream forms of Trypanosoma brucei rhodesiense STIB 900 assessed as inhibition of growth after 72 hrs by resazurin assay; assay type: functional, organism-based; details: STIB 900, 72 h
L6 = test: Cytotoxicity against rat L6 cells after 72 hrs by alamar blue assay; assay type: cell-based; details: L6, 72 h
Trypanosoma cruzi [5] = test: Antiparasitic activity against trypomastigote forms of Trypanosoma cruzi Tulahuen C2C4 infected in rat L6 cells assessed as inhibition of growth after 96 hrs by inverted microscopy; assay type: functional, organism-based; details: Tulahuen C2C4, L6, 96 h
[6] = tested on: Trypanosoma brucei brucei; test: Trypanocidal activity against bloodstream forms of Trypanosoma brucei brucei Lister 427 clone 221a overexpressing type I nitroreductase assessed as inhibition of proliferation after 3 days by resazurin assay in presence of tetracycline; assay type: functional, organism-based; details: 72 h
[7] = tested on: Trypanosoma brucei brucei; test: Trypanocidal activity against wild type bloodstream forms of Trypanosoma brucei brucei Lister 427 clone 221a assessed as inhibition of proliferation after 3 days by resazurin assay; assay type: functional, organism-based; details: 72 h
[8] = Selectivity index, ratio of IC50 for rat L6 cells to IC50 for axenic amastigote forms of Leishmania donovani MHOM/ET/67/L82; assay type: toxicity, cell-based; details: read-out: Ratio IC50
[9] = tested on: Trypanosoma brucei brucei; test: Trypanocidal activity against bloodstream forms of Trypanosoma brucei brucei Lister 427 clone 221a overexpressing type I nitroreductase assessed as inhibition of proliferation after 3 days by resazurin assay in absence of tetracycline; assay type: functional, organism-based; details: 72 h
[10] = tested on: Trypanosoma brucei brucei; test: Ratio of IC50 for bloodstream forms of Trypanosoma brucei brucei Lister 427 clone 221a overexpressing type I nitroreductase in absence of tetracycline to IC50 for bloodstream forms of Trypanosoma brucei brucei Lister 427 clone 221a overexpressing type I nitroreductase in presence of tetracycline; assay type: functional
Leishmania donovani = test: Antiparasitic activity against axenic amastigote forms of Leishmania donovani MHOM/ET/67/L82 assessed as inhibition of growth after 72 hrs by resazurin assay; assay type: functional, organism-based; details: MHOM/ET/67/L82, 72 h
[11] = molecular target: Sterol 14-alpha demethylase (Trypanosoma cruzi (strain CL Brener), UniProt Q7Z1V1); test: Binding affinity to Trypanosoma cruzi CYP51
[12] = Selectivity ratio of IC50 for trypomastigote forms of Trypanosoma cruzi Tulahuen C2C4 infected in rat L6 cells to IC50 for bloodstream forms of Trypanosoma brucei rhodesiense STIB 900; assay type: functional

Sequence of Sterol 14-alpha demethylase (Q7Z1V1 whole entry): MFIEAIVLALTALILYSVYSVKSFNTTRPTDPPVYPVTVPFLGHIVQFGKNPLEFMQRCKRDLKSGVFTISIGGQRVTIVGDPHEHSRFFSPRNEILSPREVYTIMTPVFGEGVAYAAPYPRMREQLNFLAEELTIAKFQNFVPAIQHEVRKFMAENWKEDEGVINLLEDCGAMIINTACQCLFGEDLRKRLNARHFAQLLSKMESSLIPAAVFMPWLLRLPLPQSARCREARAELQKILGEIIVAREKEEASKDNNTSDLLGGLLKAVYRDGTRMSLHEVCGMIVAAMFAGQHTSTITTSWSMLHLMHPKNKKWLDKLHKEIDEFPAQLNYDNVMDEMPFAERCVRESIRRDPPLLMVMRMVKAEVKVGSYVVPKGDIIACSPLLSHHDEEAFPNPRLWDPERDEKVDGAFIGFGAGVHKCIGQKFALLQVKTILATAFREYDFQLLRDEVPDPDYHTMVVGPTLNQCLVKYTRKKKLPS

Row | Compound | Ratio IC50 (Trypanosoma cruzi [1]) | selectivity ratio [2] | selectivity ratio [3] | IC50 [4] [µM] | IC50 (L6) [µM] | IC50 (Trypanosoma cruzi [5]) [µM] | IC50 [6] [µM] | IC50 [7] [µM] | selectivity ratio [8] | IC50 [9] [µM] | Ratio IC50 [10] | IC50 (Leishmania donovani) [µM] | Kd [11] [µM] | Ratio IC50 [12]
1 | Cc1nc([N+](=O)[O-])cn1CCCNC(=O)c1sc2ccccc2c1Cl | 0.05 | 6 | 5 | 39.4 | 189 | 32.2 |  |  |  |  |  |  |  | 
2 | O=[N+]([O-])c1ncn(CCCCNS(=O)(=O)c2ccc(Cl)s2)n1 | 4.42 | 278 | 247 | 0.52 | 128 | 0.462 | 0.55 | 22.9 | 6 | 21.6 | 39.2 | 20 |  | 
3 | O=[N+]([O-])c1nccn1CCCNS(=O)(=O)c1cc(Cl)c(Cl)s1 | 0.48 | 16 | 2 | 32.7 | 75 | 4.75 |  |  | 10 |  |  | 7.35 |  | 
4 | O=[N+]([O-])c1ncn(CCCNS(=O)(=O)c2cc(Cl)c(Cl)s2)n1 | 14.31 | 639 | 200 | 0.505 | 101 | 0.158 | 0.52 | 15.5 | 8 | 17 | 32.6 | 13.2 |  | 
5 | O=C(NCCCCn1cnc([N+](=O)[O-])n1)c1ccsc1 | 1.3 | > 194 | > 418 | 0.81 | > 339 | 1.75 | 0.31 | 3.02 | > 12 | 2.49 | 8 | 27.7 |  | 
6 | O=C(NCCCCn1cnc([N+](=O)[O-])n1)c1sc2ccccc2c1Cl | 12.09 | > 1410 | > 270 | 0.978 | > 264 | 0.187 | 0.16 | 0.44 | > 23 | 0.48 | 3 | 11.5 |  | 
7 | O=[N+]([O-])c1ncn(CCCNS(=O)(=O)c2ccc(Cl)s2)n1 | 3.6 | 556 | 122 |  |  | 0.438 |  |  | 7 |  | 18.9 |  | 65.2 | 
8 | Cc1csc(C(=O)NCCCn2cnc([N+](=O)[O-])n2)c1 | 0.8 | 68 | 176 | 0.98 | 173 | 2.55 | 0.33 | 9.69 | 4 | 6.34 | 19.2 | 46.1 |  | 
9 | O=[N+]([O-])c1ncn(CCCCNS(=O)(=O)c2cc(Cl)c(Cl)s2)n1 | 6.07 | 261 | 447 | 0.218 | 97 | 0.373 | 0.19 | 0.61 | 9 | 0.46 | 2.4 | 10.6 |  | 
10 | O=C(NCCCn1cnc([N+](=O)[O-])n1)c1ccnc(Cl)c1 | 0.17 | > 24 | > 143 | 2.25 | > 322 | 13.5 | 5.66 | > 7.99 | > 4 | 6.99 | 1.2 | 82.4 |  | 6
11 | O=C(NCCCCn1cnc([N+](=O)[O-])n1)c1nc2ccccc2s1 | 5.36 | 364 | 89 | 1.73 | 154 | 0.422 | 0.36 | 1.36 | 6 | 1.39 | 3.9 | 27.7 |  | 
12 | CC1CS(=O)(=O)CCN1/N=C/c1ccc([N+](=O)[O-])o1 (stereo unspecified) [NIFURTIMOX] |  |  |  |  |  |  |  |  |  |  | 13.2 |  |  | 
13 | Cc1ccoc1C(=O)NCCCn1cnc([N+](=O)[O-])n1 | 0.07 | > 12 | > 22 | 16.4 | > 358 | 30.4 |  |  | > 3 |  |  | 139 |  | 
14 | CCCCCCCCCCCCCCCCOP(=O)([O-])OCC[N+](C)(C)C [MILTEFOSINE] |  |  |  |  |  |  |  |  |  |  |  | 0.39 |  | 
15 | Cc1nc([N+](=O)[O-])cn1CCCNS(=O)(=O)c1ccc(Cl)s1 | 0.02 | 3 | 6 | 47.2 | 261 | 102 |  |  |  |  |  |  |  | 
16 | Cc1cc(C(=O)NCCCn2cnc([N+](=O)[O-])n2)c(C)o1 | 0.25 | > 39 | > 73 | 4.71 | > 341 | 8.87 |  |  | > 3 |  |  | 132 |  | 
17 | O=[N+]([O-])c1ncn(CCCNS(=O)(=O)c2cc(Cl)sc2Cl)n1 | 3.7 | 216 | 75 | 1.59 | 119 | 0.552 | 0.22 | 2.94 | 7 | 4.25 | 19.3 | 17.8 |  | 
18 | Cc1nc([N+](=O)[O-])cn1CCCNC(=O)c1nc2ccccc2s1 | 0.01 | > 3 | 2 | 173 | > 290 | 105 |  |  |  |  |  |  |  | 
19 | O=C(NCCCn1cnc([N+](=O)[O-])n1)c1ccc(C(F)(F)F)nc1 | 0.5 | > 84 | > 82 |  | > 291 | 3.46 |  |  |  |  |  |  |  | 
20 | Nc1nc(N)nc(Nc2ccc([As]3SCC(CO)S3)cc2)n1 (stereo unspecified) [MELARSOPROL] |  |  |  |  |  |  |  | 0.006 |  |  | 1 |  |  | 
21 | O=C(NCCCn1cnc([N+](=O)[O-])n1)c1cc2ccccc2s1 | 7.72 | 425 | 665 | 0.187 | 124 | 0.293 | 0.07 | > 0.93 | 8 | 1.29 | 18.4 | 14.7 |  | 
22 | O=[N+]([O-])c1nccn1CCCNS(=O)(=O)c1cc(Cl)sc1Cl | 0.32 | 15 | 3 | 40.3 | 108 | 6.99 |  |  | 8 |  |  | 13.1 |  | 
23 | O=C(Cn1ccnc1[N+](=O)[O-])NCc1ccccc1 [BENZNIDAZOLE] |  |  |  |  |  | 2.13 |  |  |  |  | 9.9 |  |  | 
24 | O=C(NCCCn1cnc([N+](=O)[O-])n1)c1ccsc1 | 0.57 | > 89 | > 389 | 0.915 | > 356 | 3.99 | 0.29 | 26.8 | > 5 | 21.2 | 73 | 71.2 |  | 
